According to patent US6177475A, “Methods of using integrin modulators for treatment of inflammation” (priority 1997, dated 2001):
pIC50: −log10 of the molar value.

Tests used:
[1] = system: cell-free HIV; test: Cell-free HIV infection of syncytiotrophoblasts; format: cell-based, HIV-1; details: 200 micromoles per liter and lower concentrations tested
Protocol: In order to assess the ability of Ajoene to inhibit lymphocyte-mediated HIV infection of syncytiotrophoblasts, HIV-1LBi -infected MOLT-4 cells were added to adherent cultures of uninfected syncytiotrophoblasts in the presence and absence of Ajoene. Various additional control conditions were also established. First, some wells received filtered (0.45 micrometer) supernatant of cell-free HIV from infected cell cultures. Yet other negative controls included syncytiotrophoblasts cultured alone and syncytiotrophoblasts cultured with uninfected MOLT-4 cells. After 24 hours, the cocultures were washed to removed unbound lymphocytes, fixed, permeabilized, stained for viral core antigens (p24 and p55), and viewed under a fluorescence microscope.

[2] = system: MT-2 cells / K562/VCAM-1 cells (HTLV-I); test: Syncytium formation of HTLV-I-infected MT-2 cells with K562/VCAM-1 cells; format: cell-based; details: Primate T-lymphotropic virus 1, MT2, 4 h
From the text: MT-2 cells harbor the complete genome of human T cell lymphotropic virus type 1 (HTLV-I), and they transmit the virus to susceptible uninfected cells in cocultures. The transmission manifests itself as fusion of MT-2 cells with the uninfected cells, followed by syncytium formation. K562 cells transfected with VCAM-1, a ligand of the integrin VIA-4, were used as a fusion partner for MT-2 cells. MT-2 and K562/VCAM-1 cells were washed and resuspended in complete RPMI medium at a density of 2×10^6 /ml. MT2 cells were seeded into flat-bottom 96-well microtiter plates (100 microliters per well). Serial dilutions of Ajoene or of the disintegrin kistrin (final concentration) were introduced into the wells, and the plate was incubated for 30 min prior to addition of 100 microliters of K562/VCAM-1 cells. The plates were then incubated for 4 h before scoring syncytium formation.

[3] = system: HIV-1RF; test: HIV-1RF replication in H9 cells (HIV antigens by solid phase immunoassay); format: cell-based; details: Human immunodeficiency virus 1, m.o.i. 0.1, 72 h
[4] = system: neutrophils (β2 integrins); test: N-formyl-L-methionyl-L-leucyl-L-phenylalanine-stimulated neutrophil aggregation; format: cell-based
Protocol: Neutrophil aggregation was assayed as described above for the platelet system, with some modifications. Freshly isolated neutrophils were finally suspended in a buffer (120 mM NaCl, 4 mM KCl, 10 mM dextrose, 2 mM CaCl2·2H2 O, 2 mM MgCl2·6H2 O, and 20 mM Tris; pH 7.4) to the final density of 10^7 cells per ml. Aliquots of neutrophil suspension (0.25 ml in siliconized glass cuvettes; 10^7 cells per ml) were stirred in the cell of the aggregometer with 5 micrograms per ml cytochalasin B (1000 rpm, 37° C.) for 1 min. […] Maximum LT (100%) was calibrated with the same buffer.
The requirement of integrins for the formation of cell-to-cell contacts in each of these systems has long been established. It is known that in platelets the relevant integrin is GP IIb/IIIa (β3). Neutrophil aggregation is underlain by interactions of β2 integrins (e.g., LFA-1 and/or Mac-1) with their surface counterstructures, while cohesion of T-cells is supported by both β2 integrins and fibronectin-binding β1 integrins (e.g., VLA-4 and VLA-5).

[5] = system: 111In-labeled neutrophils; test: Neutrophil recruitment to inflamed skin; format: in vivo, rat; details: 50 mg/kg i.v.; for Accumulation of 111In-labeled Neutrophils (mean ± SEM): 2 h
From the text: Chemotactic factors (e.g., C5adesArg) and cytokines, such as tumor necrosis factor α (TNF) or interferon gamma (IFN), induce rapid cutaneous inflammatory reactions, when injected intradermally. These inflammatory reactions are characterized by integrin-mediated migration of ^51 Cr-labeled monocytes and ^111 In-labeled neutrophils. The mechanisms of leukocyte recruitment to the inflammatory loci differ, however, in that chemotactic factors act primarily on leukocytes (by upregulating integrins), whereas TNF and IFN activate endothelial cells (which results, inter alia, in rapid expression of integrin ligands, such as ICAM-1 and VCAM-1).
Agents used for the induction of the inflammation included rat IFN, recombinant mouse TNF (Genentech, South San Francisco, Calif.), and Zymozan-activated serum (ZAS). ZAS, a source of C5adesArg, was generated by activating complement in normal rat serum with 5 mg/ml of Zymozan A (Sigma Chemical Company, St. Louis, Mo.) at 37° C. for 60 min, after which the zymozan was removed.
Rat monocytes and neutrophils were isolated and labeled as described in Example 6, supra. Male Lewis rats were administered intravenously with 50 mg/kg Ajoene (treatment group) or its vehicle (control), followed within 2-3 min by infusion of the labeled cells. Immediately afterwards, the skin on the back of all animals was shaved and the inflammatory stimuli and the diluent control were injected intradermally at several sites of the skin of each animal. Two hours later, 1 ml of blood was taken from each rat, and the animals were sacrificed. The dorsal skin, including the area of dermal inflammatory reactions, was removed and frozen, and the injected skin sites were punched out with a 12-mm punch and counted in a gamma spectrometer (model 1280, LXB Instruments).

[6] = system: VLA-4 (MV3 cells, VCAM-1); test: VLA-4-dependent adhesion of human melanoma MV3 cells to VCAM-1; format: cell-based; details: MV-3, 1 h, 37° C.
Protocol: (§1) Microtiter plates were coated with ligands of the integrin VLA-4, i.e., recombinant human VCAM-1 (500 nanograms per well) or the fragment of connective segment of human fibronectin (CS-1), covalently attached to ovalbumin (5 micrograms per well) by overnight incubation (4° C.) with solutions of the proteins in phosphate-buffered saline (PBS). The plates were blocked with 1% bovine serum albumin (BSA) in Hanks' buffered salt solution (HBSS-BSA). The cells (Jurkat or human melanoma MV3) were labeled with the fluorescent dye 5-chloromethylfluorescein diacetate (CMFDA) and introduced into the wells of the plates (10^5 cells per well) together with varying amounts of Ajoene. After incubation at 37° C. for 1 h, the unbound cells were removed by aspiration and the wells washed four times with HBSS-BSA. Thereafter, the bound cells were lysed with 0.5% Triton X-100, and the fluorescence was measured using a Cytofluor 2300 plate reader. The number of adherent cells was calculated from a standard dilution curve of Triton X-100 lysates of the CMFDA-labeled cells.

[7] = system: VLA-4 (Jurkat cells, VCAM-1); test: VLA-4-dependent adhesion of Jurkat cells to VCAM-1; format: cell-based; details: Homo sapiens, 1 h, 37° C.
Protocol: as §1

## C=CCSSC=CC[S+]([O-])CC=C (centres unmarked) [Ajoene, 4,5,9-trithiadodeca-1,6,11-triene-9-oxide]
[1]
  inhibition of cell-free HIV infection of syncytiotrophoblasts: totally inhibited
[2]; read-out: IC50 for syncytium formation
  pIC50: ~6.22
[2]; read-out: IC100 for syncytium formation
  IC100: 4.3 µM
[3]
  pIC50: 4.60
[4]; Neutrophil, stimulus N-formyl-L-methionyl-L-leucyl-L-phenylalanine 10^-7 M
  IC100: ~10 µM
[4]; added to aggregated neutrophils
  deaggregation of aggregated neutrophils: caused rapid deaggregation
[5]; 10 ng TNF, P < 0.006
  Accumulation of 111In-labeled Neutrophils (mean ± SEM): 1,289 cpm per inflammatory locus
[5]
  inhibition of neutrophil migration to loci of acute cutaneous inflammation: 30-40%
[5]; 25% ZAS, P < 0.001
  Accumulation of 111In-labeled Neutrophils (mean ± SEM): 5,558 cpm per inflammatory locus
[5]; 50% ZAS, P < 0.001
  Accumulation of 111In-labeled Neutrophils (mean ± SEM): 7,926 cpm per inflammatory locus
[5]; 300 U IFN, P < 0.060
  Accumulation of 111In-labeled Neutrophils (mean ± SEM): 160 cpm per inflammatory locus
[5]; diluent control stimulus, N.S.
  Accumulation of 111In-labeled Neutrophils (mean ± SEM): 53 cpm per inflammatory locus
[6]
  pIC50: 3.90
[7]
  pIC50: 3.60
